Measured values: US20250115941A1, “Exposure device for exposing microorganisms to gaseous pollutants and detection system thereof” (priority 2023, published 2025)
Converted amounts (≈) assume the structure as drawn. Counter-ions that a name gives are not always drawn.

Key:
Vibrio fischeri [1] = assay: Acute toxicity of gaseous VOCs to hydrogel-microsphere-fixed Vibrio fischeri in exposure chamber (luminescence change); format: cell-based; settings: for IC50: Aliivibrio fischeri; for IC50 (15 min) Ratio: liquid IC50 / gaseous IC50, 15 min; for IC50 (30 min) Ratio: liquid IC50 / gaseous IC50, 30 min; for IC50 (45 min) Ratio: liquid IC50 / gaseous IC50, 45 min; for IC50 (60 min) Ratio: liquid IC50 / gaseous IC50, 60 min; for minimum detection limit: no pre-concentration
Protocol: A method for using the exposure device for exposing microorganisms to gaseous pollutants provided in the present application includes steps as follows: • (1) preparing the hydrogel microspheres with microorganisms: culturing microorganisms in a culture medium dissolved with 1.5% of sodium alginate for 3 h to 4 h, and after OD600 is greater than 0.1, uniformly dripping the microorganisms into a 1.5% calcium chloride solution through a peristaltic pump at a rate of 1.5 ml/min to obtain the hydrogel microspheres with microorganisms; taking out and placing the hydrogel microspheres in a culture medium for use; • (2) sequentially loading the hydrogel microspheres fixed with microorganisms in the multi-well exposure tray according to a detection requirement, and detecting an initial intensity of fluorescent signals of the hydrogel microspheres fixed with microorganisms; • (3) fixing the multi-well exposure tray to a lower end of the vertical pipe of the T-shaped air flow-mixing pipe through threads, and connecting the pressurizing air outlet pipe to the T-shaped air flow-mixing pipe, wherein silicone seal gaskets are mounted at all threaded connections to ensure leakproofness of the exposure device; • (4) placing the exposure device in an in-situ multi-toxicity endpoint detection system for VOCs or an in-situ multi-toxicity endpoint detection system for atmospheric particulate matter to make the gaseous pollutants enter the exposure device through the first and second depressurizing air inlet pipes at a flow rate ranging from 0.3 L/min to 2.0 L/min; and • (5) continuously introducing the gaseous pollutants for 15 min to 60 min, and then introducing clean air for 8 min to 10 min to completely replace the gaseous pollutants in the detection system; removing the multi-well exposure tray, and sequentially placing the hydrogel microspheres in the multi-well exposure tray into a 96 well plate, and detecting a final intensity of fluorescent signals of the hydrogel microspheres fixed with microorganisms in the plurality of channels by using a microplate reader to obtain an intensity change of fluorescent signals.
A commercial VOCs generator is used to accurately generate seven different VOCs with nine gradient concentrations, involving aldehydes (formaldehyde and acetaldehyde), pyridines (pyridine), alcohols (n-butyl alcohol), acyls and ketones (acetylacetone), benzenes, and phenols (phenol). Natural luminescent bacteria Vibrio fischeri as a target, is fixed by using hydrogel microspheres, and is arranged in an exposure chamber. VOCs are sequentially introduced into the exposure chamber at a flow rate of 0.5 L/min. After exposure for 15 min, 30 min, 45 min, and 60 min, Vibrio fischeri is taken out, and intensity change of fluorescent signals of Vibrio fischeri are measured by using a microplate reader. Concentration-acute toxicity curves of the gaseous pollutant comprising different VOCs and mixed VOCs are fitted by using analysis software, to obtain the IC50 value of acute toxicity of the gaseous pollutants.

Vibrio fischeri [2] = assay: Acute toxicity exposure experiments of VOCs in a liquid state (conventional method); format: cell-based; settings: for IC50: Aliivibrio fischeri
Vibrio fischeri [3] = settings: concentration ratio 10 times
From the text: (1) According to a detection requirement in this embodiment, the quantity of the multi-well exposure tray that need to be loaded is 1, and only one type of the hydrogel microspheres fixed with natural fluorescent microorganisms Vibrio fischeri is provided, and the quantity of hydrogel microspheres fixed with microorganisms that need to be used is 60. An initial fluorescence intensity of each hydrogel microsphere is detected and recorded, and the hydrogel microspheres are placed in the multi-well exposure tray, the multi-well exposure tray is loaded into the exposure device, and the detection system is sealed. […]
(4) The system-controlled vacuum pump at the distal end of the detection system and the vacuum pump of the gas circulation device are turned on, and the concentrated VOCs is introduced into the exposure device at 0.5 L/min, wherein exposure is set to last 15 min, 30 min, 45 min, and 60 min; and stability of the flowmeter of the gas circulation device and the system-controlled flowmeter at the distal end of the detection system during the process is monitored.
(5) After exposure to VOCs is completed, a microplate reader is used to measure final fluorescence intensity of each hydrogel microsphere, and changes of the initial fluorescence intensity and the final fluorescence intensity are obtained.

[4] = test system: recombined Escherichia coli carrying plasmids with different gene pathway; assay: Genotoxicity of gaseous dimethyl sulfate with the in-situ multi-toxicity endpoint detection system for VOCs (Embodiment 1); settings: exposure 20-500 mg/m^3, 15 min, 0.5 L/min
Protocol: Embodiment 1: Genotoxicity of an artificial gaseous pollutant (dimethyl sulfate) is detected by using the in-situ multi-toxicity endpoint detection system for volatile organic compounds (VOCs) constructed in the present application. Specific steps are as follows:
In this embodiment, a Tenax TA multi-well polymer adsorbent is selected as the adsorption material to be filled in an adsorber of the atmospheric pre-concentrator, and a mixed liquid of 50% of ethanol and 50% of pure water is added to the gas-washing bottle and the high-temperature steam generator.
(2) According to a detection requirement in this embodiment, the quantity of the multi-well exposure tray that need to be loaded is 6, 29 types of hydrogel microspheres fixed with recombined Escherichia coli carrying plasmids with different gene pathway are provided, and the quantity of each type of hydrogel microspheres fixed with microorganisms that need to be used is 15. An initial fluorescence intensity of each hydrogel microsphere is detected and recorded, and the hydrogel microspheres are placed in the multi-well exposure tray, the multi-well exposure tray is loaded into the exposure device, and the detection system is sealed. […]

[5] = 0.25 h, gaseous exposure, 15 min, 0.5 L/min, read-out: IC50 (15 min) Gaseous
[6] = 0.5 h, gaseous exposure, 30 min, 0.5 L/min, read-out: IC50 (30 min) Gaseous
[7] = 0.75 h, gaseous exposure, 45 min, 0.5 L/min, read-out: IC50 (45 min) Gaseous
[8] = 1 h, gaseous exposure, 60 min, 0.5 L/min, read-out: IC50 (60 min) Gaseous
[9] = 0.25 h, 15 min, read-out: IC50 (15 min) Liquid
[10] = 0.5 h, 30 min, read-out: IC50 (30 min) Liquid
[11] = 0.75 h, 45 min, read-out: IC50 (45 min) Liquid
[12] = 1 h, 60 min, read-out: IC50 (60 min) Liquid

SMILES	IC50 (Vibrio fischeri [1]; [5])	IC50 (Vibrio fischeri [1]; [6])	IC50 (Vibrio fischeri [1]; [7])	IC50 (Vibrio fischeri [1]; [8])	IC50 (15 min) Ratio (Vibrio fischeri [1])	IC50 (30 min) Ratio (Vibrio fischeri [1])	IC50 (45 min) Ratio (Vibrio fischeri [1])	IC50 (60 min) Ratio (Vibrio fischeri [1])	IC50 (Vibrio fischeri [2]; [9])	IC50 (Vibrio fischeri [2]; [10])	IC50 (Vibrio fischeri [2]; [11])	IC50 (Vibrio fischeri [2]; [12])	other results
c1ccncc1 [Pyridine]	1.5 µg/mL (≈ 19 µM)	1.25 µg/mL (≈ 15.8 µM)	0.88 µg/mL (≈ 11.1 µM)	0.5 µg/mL (≈ 6.32 µM)	680	864	1295	2500	1020 µg/mL (≈ 12900 µM)	1080 µg/mL (≈ 13700 µM)	1140 µg/mL (≈ 14400 µM)	1250 µg/mL (≈ 15800 µM)	–
Oc1ccccc1 [Phenol]	0.0689 µg/mL (≈ 0.732 µM)	0.0363 µg/mL (≈ 0.386 µM)	0.028 µg/mL (≈ 0.298 µM)	0.0202 µg/mL (≈ 0.215 µM)	3921	7991	11424	15818	270 µg/mL (≈ 2870 µM)	290 µg/mL (≈ 3080 µM)	320 µg/mL (≈ 3400 µM)	320 µg/mL (≈ 3400 µM)	minimum detection limit (Vibrio fischeri [1]; gaseous exposure): 20.31 mg/m^3; minimum detection limit at concentration ratio of 10 times (Vibrio fischeri [3]): 2.03 mg/m^3
C=O [Formaldehyde]	0.00481 µg/mL (≈ 0.16 µM)	0.00234 µg/mL (≈ 0.0779 µM)	0.00181 µg/mL (≈ 0.0603 µM)	0.00129 µg/mL (≈ 0.043 µM)	3395	6684	8519	11457	16.3 µg/mL (≈ 544 µM)	15.6 µg/mL (≈ 521 µM)	15.4 µg/mL (≈ 514 µM)	14.8 µg/mL (≈ 492 µM)	minimum detection limit (Vibrio fischeri [1]; gaseous exposure): 1.3 mg/m^3; minimum detection limit at concentration ratio of 10 times (Vibrio fischeri [3]): 0.13 mg/m^3
COS(=O)(=O)OC [dimethyl sulfate]	–	–	–	–	–	–	–	–	–	–	–	–	gene pathways significantly upregulated (of 29 key gene pathways) [4]: Nine of these gene pathways are significantly upregulated; genotoxicity / toxicity effects indicated [4]: may cause inhibition of cell division, oxidative stress, protein stress, and severe DNA damage, mutation, and recombination
CC(=O)CC(C)=O [Acetylacetone]	0.28 µg/mL (≈ 2.8 µM)	0.19 µg/mL (≈ 1.9 µM)	0.13 µg/mL (≈ 1.3 µM)	0.11 µg/mL (≈ 1.1 µM)	1000	1316	2385	2273	280 µg/mL (≈ 2800 µM)	250 µg/mL (≈ 2500 µM)	310 µg/mL (≈ 3100 µM)	250 µg/mL (≈ 2500 µM)	–
CC=O [Acetaldehyde]	2.12 µg/mL (≈ 48.1 µM)	1.29 µg/mL (≈ 29.3 µM)	0.83 µg/mL (≈ 18.8 µM)	0.49 µg/mL (≈ 11.1 µM)	302	450	699	1224	640 µg/mL (≈ 14500 µM)	580 µg/mL (≈ 13200 µM)	580 µg/mL (≈ 13200 µM)	600 µg/mL (≈ 13600 µM)	–
CCCCO [N-butyl alcohol]	–	–	–	–	1705	2521	3472	4625	–	–	–	–	IC50 (15 min) Gaseous (Vibrio fischeri [1]; gaseous exposure, 15 min, 0.5 L/min): 1.05 µg/mL (≈ 14.2 µM); IC50 (30 min) Gaseous (Vibrio fischeri [1]; gaseous exposure, 30 min, 0.5 L/min): 0.73 µg/mL (≈ 9.85 µM); IC50 (45 min) Gaseous (Vibrio fischeri [1]; gaseous exposure, 45 min, 0.5 L/min): 0.53 µg/mL (≈ 7.15 µM); IC50 (60 min) Gaseous (Vibrio fischeri [1]; gaseous exposure, 60 min, 0.5 L/min): 0.40 µg/mL (≈ 5.4 µM); IC50 (15 min) Liquid (Vibrio fischeri [2]; 15 min): 1790 µg/mL (≈ 24100 µM); IC50 (30 min) Liquid (Vibrio fischeri [2]; 30 min): 1840 µg/mL (≈ 24800 µM); IC50 (45 min) Liquid (Vibrio fischeri [2]; 45 min): 1840 µg/mL (≈ 24800 µM); IC50 (60 min) Liquid (Vibrio fischeri [2]; 60 min): 1850 µg/mL (≈ 25000 µM)
